# From patent EP0727211A1, “Use of src SH2 specific compounds to treat a bone resorption disease” (SMITHKLINE BEECHAM CORPORATION, priority 1995, dated 1996)
# Target: T1, human hcp SH2 domain (Homo sapiens, UniProt P29350)
# T1 sequence (P29350 4-100): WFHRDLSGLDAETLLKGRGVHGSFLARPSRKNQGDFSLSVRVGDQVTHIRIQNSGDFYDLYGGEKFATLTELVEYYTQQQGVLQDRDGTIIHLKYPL
# Assay: SH2 domain / pY peptide binding assay (ELISA-based, 96 well plate), hcp SH2
# Conditions: cloned human SH2 domain fusion protein; 0.1 uM biotinylated pY peptide; Table I; read-out: Hcp (IC50)
# Protocol: The inhibitory activity of compounds at the different human SH2 domains was determined in vitro using SH2 domains expressed as fusion proteins in E. coli. The SH2 domains used herein were the human forms of the src SH2 domain, Grb2 SH2 domain, lck SH2 domain, fyn SH2 domain, SH-PTP2 SH2 domain, p85 SH2 domain and hcp SH2 domain.
# The fusion proteins containing the src, lck and hcp SH2 domains were expressed as the general sequence: DET1-DET2-spacer-ek-SH2, where DETI, DET2, spacer, ek and SH2 are as described below. DET1 ("defined epitope tag 1") (SEQ ID NO: 1) is an 11 amino acid sequence found in the Human Immunodeficiency Virus Type 1 (HIV-1) envelope protein gp120 (or gp160). Monoclonal antibodies to various epitopes of HIV-1 gp120 (or gp160) are known in the art, see, for example U.S. Patent 5,166,050. One preferred example is monoclonal antibody 178.1 (see, e.g., Thiriart et al., J. Immunol., 143:1832-1836 (1989)), which was prepared by immunization of mice with a yeast-expressed HIV-1 gp160 molecule from strain BH10 (Ratner et al., Nature, 313:277-284 (1985)). This tag was used for detection of expression (by Western blot), for purification of the protein (by affinity chromatography), and for configuring assays in which the fusion protein was captured or immobilized using the 178.1 antibody. DET2 is a hexahistidine sequence tag (SEQ ID NO: 2) which binds to nickel-containing resins and was used for purification purposes. Spacer (SEQ ID NO: 3) was utilized to design a BamH1 restriction site at the indicated position of the construct. The term -ekrefers to a recognition sequence (SEQ ID NO: 4) for the enterokinase protease which provides for the optional removal of the tags from the SH2 domain, thus producing an SH2 domain that contains no extraneous amino acids. SH2 domains which contain no extraneous amino acids are preferable to tagged protein for crystallography studies. SH2 refers to the SH2 domains of different proteins.
# Cloning and expression of human hcp SH2 domain containing tags and an enterokinase proteolytic cleavage site (DET1-DET2-spacer-ek-hcp SH2).
# A DNA sequence encoding protein ek-hcp SH2 was reverse transcriptase-PCR amplified from human fetal liver RNA. RNA isolation used Tri-Reagent (Molecular Research Center Inc.) and the Reverse Transcriptase system (GIBCO-BRL) according to the manufacture's instructions. PCR was carried out using the following primers: [formula]
# The PCR product was digested with BglII and XbaI, followed by isolation of the digested fragment on an agarose gel. The fragment was ligated into BamHI-XbaI-digested expression vector containing the tagged human src gene DET1-DET2-spacer-ek-src SH2 described in Procedure 2 above. In that vector, the BamHI site is located in between the coding regions for DET2 and ek, and the XbaI site is located after the 3' end of the SH2 coding region. Thus, the ek-hcp SH2 sequence replaced the ek-src SH2 sequence in the above vector. The ligation reaction was used to transform E. coli MM294cI^+. The construct containing DET1-DET2-spacer-ek-hcp SH2 was confirmed by DNA sequencing (SEQ ID NO: 7) and used to transform E. coli GI698 (Invitrogen Corporation, San Diego, CA). Induction of the phage lambda promoter was induced by addition of tryptophan to the culture medium to 10 mg/ml, per the manufacture's instructions. A Coomassie-Blue-stained, Western-blot-positive induced protein band with an apparent molecular weight of 15,000 was observed after tryptophan induction of cells growing at 30° C.
# Cells were lysed at neutral pH by sonication in the presance of lysozyme. After centrifugation, the insoluble pellet was solubilized with 8 M urea in Tris buffer pH 8 and bound onto a Ni^++NTA column. The resin was washed with equilibration buffer (Tris buffer pH 8 containing 0.5 M NaCl, 8 M urea and 5 mM BME) and the same buffer containing 15 mM imidazole. […]
row,Compound,IC50 [nM]
1,"CCCCCCNC(=O)[C@H]1CC[C@H](CNC(=O)c2ccc([N+](=O)[O-])cc2)CC1 [Compound 7, 4-nitro-benzamido-trans-4-methyl-cyclohexyl-N-hexyl carboxamide]",> 300000
2,4-acetamido-benzamido-trans-4-methyl-cyclohexyl-N-1-(amino-R-2-(methoxy methyl)-pyrrolidine) carboxamide [Compound 8],> 100000

# The remaining lines, values ahead:
row,IC50 [nM],Compound
1,30000,"Cc1ccc(C(=O)c2ccc(C(=O)c3ccc(CC=O)cc3)cc2)cc1 [Compound 4, 4-[4-(4-Methylbenzoyl)benzoyl]phenylacetaldehyde]"
2,12000,"CCCNC(=O)[C@H]1CC[C@H](CNC(=O)/C=C/c2ccc(C=O)cc2)CC1 [Compound 9, 4-formyl-E-cinnamido-trans-4-methyl-cyclohexyl-N-(propyl) carboxamide]"
3,1200,"Cc1nc2sc3c(c2c2[nH][nH]c(=O)c12)CCC1(C3)OCCO1 [Compound 3, 8,8-Ethylenedioxy-2,3,7,8,9,10-hexahydro-4-methyl-1H-benzo[b]thieno[2,3-b]pyrazolo[3,4-d]pyridin-3-one]"
4,1200,"Cc1nc2sc3c(c2c2[nH][nH]c(=O)c12)CCCC3 [Compound 10, 2,3,7,8,9,10-Hexahydro-4-methyl-1H-benzo[b]thieno[2,3-b]pyrazolo[3,4-d]pyridin-3-one]"
5,100,"Cc1nc2sc3c(c2c2c1c(=O)[nH]n2C)CCC1(C3)OCCO1 [Compound 5, 1,4-Dimethyl-8,8-ethylenedioxy-2,3,7,8,9,10-hexahydro-1H-benzo[b]thieno[2,3-b]pyrazolo[3,4-d]pyridin-3-one]"

# Same assay, conditions: read-out: Hcp (IC50); cloned human SH2 domain fusion protein; 0.1 uM biotinylated pY peptide; Table I
row,Compound,IC50 [nM]
1,"N[C@@H](Cc1cc(Br)c(Oc2ccc(O)c(Cc3ccc(O)nn3)c2)c(Br)c1)C(=O)O [Compound 2, L-3,5-Dibromo-3'-(6-oxo-3(1H)-pyridazinylmethyl)-thyronine]",900
